US6362369B1, “Phthalic acid diamide derivatives fluorine-containing aniline compounds as starting material, agricultural and horticultural insecticides, and a method for application of the insecticides” (Nihon Nohyaku Co., Ltd., priority 1997, dated 2002)

What was measured:
Format in all cases: in vivo
[1] = system: diamondback moth (Plutella xylostella); test: Insecticidal effect on diamondback moth (Test Example 1); details: mortality judged according to the criterion shown in Test Example 1
Summary of the method: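 Chinese cabbage seedlings carrying eggs laid by released adult moths were immersed in treatment, air-dried and held at 25° C. Hatched insects were counted six days after immersion, and mortality was calculated and scored against a fixed criterion. Three replicate groups of 10 insects were used.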

[2] = system: rice leafroller (Cnaphalocrocis medinalis); test: Insecticidal effect on rice leafroller (Test Example 3); details: 500 ppm, rice lamina dip, third-instar larvae, four days after inoculation, 25° C., humidity 70%
Summary of the method: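 Groups of 10 third-instar larvae, in triplicate, are placed on air-dried lamina resting on wet filter paper. Incubation runs four days at 25° C with 70% humidity before survivors and dead are tallied.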

[3] = system: common cutworm (Spodoptera Litura); test: Insecticidal effect on common cutworm (Test Example 2); details: 500 ppm, cabbage leaf dip, second-instar larvae, eight days after inoculation, 25° C.
Summary of the method: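 Second-instar larvae placed in 9 cm Petri dishes with air-dried treated material, held at 25 °C. Dead and live insects counted 8 days after inoculation; mortality calculated and scored against a set criterion. Triplicate groups of 10 insects.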

SMILES | Insecticidal effect on diamondback moth (Test Example 1), judged grade [1] | Insecticidal effect on rice leafroller (Test Example 3), judged grade [2] | Insecticidal effect on common cutworm (Test Example 2), judged grade [3]
Cc1cc(OC(F)(F)C(F)(Br)C(F)(F)F)ccc1NC(=O)c1c(I)cccc1C(=O)NC(C)C (stereo not drawn) [compound 446] | A (100) | A (100) | A (100)
Cc1cc(OCC(F)(F)C(F)F)ccc1NC(=O)c1c(I)cccc1C(=O)NC(C)C [compound 447] | A (100) | C (89-80) | B (99-90)
Cc1cc(OC(F)(F)Br)ccc1NC(=O)c1c(I)cccc1C(=O)NC(C)C [compound 452] | A (100) | A (100) | A (100)
Cc1cc(OC(F)(F)C(F)F)ccc1NC(=O)c1c(I)cccc1C(=O)NC(C)C [compound 453] | A (100) | A (100) | D (79-50)
Cc1cc(OC(F)(F)C(F)F)c(Cl)cc1NC(=O)c1c(I)cccc1C(=O)NC(C)C [compound 454] | A (100) | A (100) | A (100)
Cc1cc(OC(F)(F)C(F)Cl)ccc1NC(=O)c1c(I)cccc1C(=O)NC(C)C (stereo not drawn) [compound 455] | A (100) | A (100) | B (99-90)
Cc1cc(OC(F)(F)C(F)OC(F)(F)F)ccc1NC(=O)c1c(I)cccc1C(=O)NC(C)C (stereo not drawn) [compound 457] | A (100) | B (99-90) | A (100)
CC(C)NC(=O)c1cccc(I)c1C(=O)Nc1ccc(C(F)(F)C(F)(F)C(F)(F)F)cc1Cl [compound 468] | A (100) | B (99-90) | A (100)
Cc1cc(OC(F)F)ccc1NC(=O)c1c(I)cccc1C(=O)NC(C)C [compound 469] | A (100) | D (79-50) | A (100)
Cc1cc(OC(F)F)c(Cl)cc1NC(=O)c1c(I)cccc1C(=O)NC(C)C [compound 470] | A (100) | C (89-80) | C (89-80)
CC(C)NC(=O)c1cccc(I)c1C(=O)Nc1ccc(OC(F)F)c(C(F)(F)F)c1 [compound 471] | A (100) | A (100) | A (100)
CC(C)NC(=O)c1c(F)cccc1C(=O)Nc1ccc(C(F)(F)C(F)(F)C(F)(F)F)cc1 [compound 473] | A (100) | A (100) | A (100)
CC(C)NC(=O)c1c(F)cccc1C(=O)Nc1ccc(C(F)(C(F)(F)F)C(F)(F)F)cc1 [compound 474] | A (100) | A (100) | B (99-90)
CC(C)NC(=O)c1c(F)cccc1C(=O)Nc1ccc(OC(F)(F)C(F)OC(F)(F)C(F)(F)C(F)(F)F)cc1 (stereo not drawn) [compound 476] | A (100) | A (100) | A (100)
CC(C)NC(=O)c1c(F)cccc1C(=O)Nc1ccc(SC(F)(F)C(F)(F)Br)cc1 [compound 480] | A (100) | A (100) | B (99-90)
CC(C)NC(=O)c1c(F)cccc1C(=O)Nc1cccc(Cl)c1Cl [compound 488] | A (100) | A (100) | A (100)
Cc1c(Cl)cccc1NC(=O)c1cccc(F)c1C(=O)NC(C)C [compound 489] | A (100) | A (100) | A (100)
Cc1cc(Cl)ccc1NC(=O)c1cccc(F)c1C(=O)NC(C)C [compound 490] | A (100) | A (100) | A (100)

SMILES | Insecticidal effect on diamondback moth (Test Example 1), judged grade [1] | Insecticidal effect on rice leafroller (Test Example 3), judged grade [2] | Insecticidal effect on common cutworm (Test Example 2), judged grade [3]
Cc1ccc(Cl)cc1NC(=O)c1cccc(F)c1C(=O)NC(C)C [compound 491] | A (100) | A (100) | A (100)
Cc1cc(I)ccc1NC(=O)c1cccc(F)c1C(=O)NC(C)C [compound 492] | A (100) | A (100) | A (100)
Cc1ccc(F)cc1NC(=O)c1cccc(F)c1C(=O)NC(C)C [compound 493] | A (100) | A (100) | A (100)
Cc1cc(C(F)(F)C(F)(F)F)ccc1NC(=O)c1cccc(F)c1C(=O)NC(C)C [compound 495] | A (100) | A (100) | A (100)
Cc1cc(C(F)(F)C(F)(F)C(F)(F)F)ccc1NC(=O)c1cccc(F)c1C(=O)NC(C)C [compound 496] | A (100) | A (100) | A (100)
Cc1cc(C(F)(F)C(F)(F)C(F)(F)C(F)(F)F)ccc1NC(=O)c1cccc(F)c1C(=O)NC(C)C [compound 498] | A (100) | A (100) | A (100)
Cc1c(NC(=O)c2cccc(F)c2C(=O)NC(C)C)cccc1OC(F)F [compound 499] | A (100) | A (100) | A (100)
Cc1cc(OC(F)F)ccc1NC(=O)c1cccc(F)c1C(=O)NC(C)C [compound 500] | A (100) | A (100) | B (99-90)
Cc1cc(OC(F)(F)C(Cl)(Cl)Cl)ccc1NC(=O)c1cccc(F)c1C(=O)NC(C)C [compound 501] | A (100) | A (100) | A (100)
Cc1cc(OC(F)(F)C(F)(Cl)Cl)ccc1NC(=O)c1cccc(F)c1C(=O)NC(C)C [compound 502] | A (100) | A (100) | A (100)
Cc1cc(OC(F)(F)C(F)(F)Br)ccc1NC(=O)c1cccc(F)c1C(=O)NC(C)C [compound 503] | A (100) | A (100) | B (99-90)
CC(C)NC(=O)c1c(F)cccc1C(=O)Nc1ccc(C(F)(F)F)cc1Cl [compound 504] | A (100) | A (100) | A (100)
CC(C)NC(=O)c1c(F)cccc1C(=O)Nc1ccc(C(F)(F)C(F)(F)C(F)(F)F)cc1Cl [compound 505] | A (100) | A (100) | A (100)
CC(C)NC(=O)c1c(F)cccc1C(=O)Nc1ccc(C(F)(C(F)(F)F)C(F)(F)F)cc1Cl [compound 507] | A (100) | A (100) | B (99-90)
CC(C)NC(=O)c1c(F)cccc1C(=O)Nc1ccc(OC(F)(F)F)cc1Cl [compound 508] | A (100) | A (100) | B (99-90)
CC(C)NC(=O)c1c(F)cccc1C(=O)Nc1ccc(OC(F)(F)F)cc1Br [compound 509] | A (100) | A (100) | A (100)
Cc1cc(OC(F)(F)F)ccc1NC(=O)c1cccc(F)c1C(=O)NC(C)C [compound 510] | A (100) | A (100) | B (99-90)
